Assay [1] has as its target T1, GHS-R1a (Homo sapiens, UniProt Q92847).
T1 construct: expressed in transfected cells; host or cells: HEK293
In words: Radioligand binding assay, displacement of [125I-His9]ghrelin(1-28). The following applies: for IC50: GHS-R1a transfected HEK293 cells, [125I-His9]ghrelin(1-28) radioligand, determined in applicant's lab; for binding affinity with GHS-R1a, stated in words: radioligand binding assay. As to the method: The affinity for GHS-R1a was determined using a radioligand binding assay. […] The resulting suspension was incubated for 20 min with shaking (550 rpm). […] All binding assays were performed in triplicate.
Background: In a radioligand displacement assay an active substance lowers the binding of a labelled ligand.

Assay [2] addresses T1, GHS-R1a. The following applies: cited from earlier work; for Ki: literature value, read-out: Ki values reported in the literature.

The structures appear in SMILES notation. Where “and” joins values, the source holds several entries; their conditions need not be identical. Identical values can stand only once. Like-named read-outs stand apart in the source and are kept apart here.

T1 sequence (Q92847 whole entry): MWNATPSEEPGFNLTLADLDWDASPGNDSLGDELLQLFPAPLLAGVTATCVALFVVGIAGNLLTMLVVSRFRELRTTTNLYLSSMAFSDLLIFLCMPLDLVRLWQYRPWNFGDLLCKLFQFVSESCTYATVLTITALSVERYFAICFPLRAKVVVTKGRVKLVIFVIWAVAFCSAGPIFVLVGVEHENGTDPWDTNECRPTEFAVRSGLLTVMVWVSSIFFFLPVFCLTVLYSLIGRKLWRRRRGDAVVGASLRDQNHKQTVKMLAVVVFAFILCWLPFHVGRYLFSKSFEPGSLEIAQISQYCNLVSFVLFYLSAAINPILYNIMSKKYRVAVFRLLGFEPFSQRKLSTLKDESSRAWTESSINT

The term IC50 denotes the concentration that gives 50% inhibition. Compound `O=c1c2cc(Oc3ccc(F)cc3)ccc2nc(-c2ccc(OCCO)cc2F)n1C[C@H]1CCCNC1` [Compound 14b, (S)-2-(2-fluoro-4-(2-hydroxyethoxy)phenyl)-6-(4-fluorophenoxy)-3-(piperidin-3-ylmethyl)quinazolin-4(3H)-one] registered a 50% inhibitory concentration (IC50) at GHS-R1a [1] of 19.8 nM.

As for `Cc1ccccc1-c1nc2ccc(C(=O)c3ccc(F)cc3)cc2c(=O)n1C[C@H]1CCCN(C(C)C)C1` [Compound 20, (S)-6-(4-fluorobenzoyl)-3-((1-isopropylpiperidin-3-yl)methyl)-2-(o-tolyl)quinazolin-4(3H)-one], on GHS-R1a [1], the half-inhibitory concentration (IC50) turned out to be 3.8 nM and the “binding affinity with GHS-R1a, stated in words” value (from here on “binding affinity with GHS-R1a”) was “equivalent binding affinity to natural ghrelin”. On to `Cc1ccccc1-c1nc2ccc(Oc3ccc(F)nc3)cc2c(=O)n1C[C@H]1CCCN(CCF)C1` [Compound 5c, (S)-3-((1-(2-fluoroethyl)piperidin-3-yl)methyl)-6-((6-fluoropyridin-3-yl)oxy)-2-(o-tolyl)quinazolin-4(3H)-one], for which the IC50 on GHS-R1a [1] was 64.2 nM and 62.4 nM. Compound `Cc1ccccc1-c1nc2ccc(Oc3ccc(F)cc3)cc2c(=O)n1C[C@H]1CCCN(CCF)C1` [Compound 5a, (S)-3-((1-(2-fluoroethyl)piperidin-3-yl)methyl)-6-(4-fluorophenoxy)-2-(o-tolyl)quinazolin-4(3H)-one] yielded a concentration for half-maximal inhibition (IC50) on GHS-R1a [1] of 29.5 nM. As for `O=c1c2cc(Oc3ccc4ncsc4c3)ccc2nc(-c2ccccc2F)n1C[C@H]1CCCN(CCF)C1` [Compound 10c, (S)-6-(benzo[d]thiazol-6-yloxy)-3-((1-(2-fluoroethyl)piperidin-3-yl)methyl)-2-(2-fluorophenyl)quinazolin-4(3H)-one], the IC50 on GHS-R1a [1] was 8.1 nM. One may read the Ki as a dissociation constant, usually derived from enzyme kinetics or from competition with a known ligand. Regarding `Cc1ccccc1-c1nc2ccc(Oc3ccc(F)cc3)cc2c(=O)n1C[C@H]1CCCN(C(C)C)C1` [Compound 5f, (S)-6-(4-fluorophenoxy)-3-((1-isopropylpiperidin-3-yl)methyl)-2-(o-tolyl)quinazolin-4(3H)-one, reference compound], the half-inhibitory concentration (IC50) at GHS-R1a [2] (literature value (Bayer work), read-out: IC50 reported for prior art compound) is 0.9 nM. Further, at GHS-R1a [2], the inhibition constant Ki was 0.9 nM. On GHS-R1a [1], the 50% inhibitory concentration (IC50) was found to be 3.7 nM and the “binding affinity with GHS-R1a” value is reported as “equivalent binding affinity with natural ghrelin”. On GHS-R1a [1], `O=c1c2cc(Oc3ccc(F)cn3)ccc2nc(-c2ccc(OCCO)cc2F)n1C[C@H]1CCCNC1` [Compound 14a, (S)-2-(2-fluoro-4-(2-hydroxyethoxy)phenyl)-6-((5-fluoropyridin-2-yl)oxy)-3-(piperidin-3-ylmethyl)quinazolin-4(3H)-one] came in with an IC50 of 353 nM.

For the compound `CC(C)N1CCC[C@H](Cn2c(-c3ccc(OCCF)cc3F)nc3ccc(Oc4ccc(F)cc4)cc3c2=O)C1` [Compound 17b, (S)-2-(2-fluoro-4-(2-fluoroethoxy)phenyl)-6-(4-fluorophenoxy)-3-((1-isopropylpiperidin-3-yl)methyl)quinazolin-4(3H)-one], on GHS-R1a [1], the concentration for half-maximal inhibition (IC50) is 0.33 nM and the “binding affinity with GHS-R1a” value was “sub-nanomolar binding affinity”. `CC(=O)N1CCN(c2ccc(Oc3ccc4nc(-c5ccccc5C)n(C[C@H]5CCCNC5)c(=O)c4c3)cc2)CC1` [Compound 4f, (S)-6-(4-(4-acetylpiperazin-1-yl)phenoxy)-3-(piperidin-3-ylmethyl)-2-(o-tolyl)quinazolin-4(3H)-one]: on GHS-R1a [1], the half-maximal inhibitory concentration (IC50) came to 587 nM.

With `Cc1ccccc1-c1nc2ccc(Oc3ccc4ncsc4c3)cc2c(=O)n1C[C@H]1CCCNC1` [Compound 4e, (S)-6-(benzo[d]thiazol-6-yloxy)-3-(piperidin-3-ylmethyl)-2-(o-tolyl)quinazolin-4(3H)-one], the IC50 on GHS-R1a [1] came out at 5.3 nM. In turn, `CC(C)N1CCC[C@H](Cn2c(-c3ccc(OCCO)cc3F)nc3ccc(Oc4ccc(F)cn4)cc3c2=O)C1` [Compound 15a, (S)-2-(2-fluoro-4-(2-hydroxyethoxy)phenyl)-6-((5-fluoropyridin-2-yl)oxy)-3-((1-isopropylpiperidin-3-yl)methyl)quinazolin-4(3H)-one] yielded an IC50 at GHS-R1a [1] of 40.1 nM.

With `Cc1ccccc1-c1nc2ccc(Oc3ccc(F)cn3)cc2c(=O)n1C[C@H]1CCCN(CCF)C1` [Compound 5b, (S)-3-((1-(2-fluoroethyl)piperidin-3-yl)methyl)-6-((5-fluoropyridin-2-yl)oxy)-2-(o-tolyl)quinazolin-4(3H)-one], the IC50 at GHS-R1a [1] was 20.6 nM.

`Cc1ccccc1-c1nc2ccc(Oc3ccc4ncsc4c3)cc2c(=O)n1C[C@H]1CCCN(CCF)C1` [Compound 5e, (S)-6-(benzo[d]thiazol-6-yloxy)-3-((1-(2-fluoroethyl)piperidin-3-yl)methyl)-2-(o-tolyl)quinazolin-4(3H)-one] gave an IC50 at GHS-R1a [1] of 9.3 nM. Still for that read-out and setting: the same measure for `CC(C)N1CCC[C@H](Cn2c(-c3ccc(OCCF)cc3F)nc3ccc(Oc4ccc(F)cn4)cc3c2=O)C1` [Compound 17a, (S)-2-(2-fluoro-4-(2-fluoroethoxy)phenyl)-6-((5-fluoropyridin-2-yl)oxy)-3-((1-isopropylpiperidin-3-yl)methyl)quinazolin-4(3H)-one]: 17.6 nM; for `Cc1ccccc1-c1nc2ccc(Oc3ccc(F)cn3)cc2c(=O)n1C[C@H]1CCCNC1` [Compound 4b, (S)-6-((5-fluoropyridin-2-yl)oxy)-3-(piperidin-3-ylmethyl)-2-(o-tolyl)quinazolin-4(3H)-one]: 52 nM; for `Cc1ccccc1-c1nc2ccc(Oc3ccc(F)nc3)cc2c(=O)n1C[C@H]1CCCNC1` [Compound 4c, (S)-6-((6-fluoropyridin-3-yl)oxy)-3-(piperidin-3-ylmethyl)-2-(o-tolyl)quinazolin-4(3H)-one]: 68.5 nM. Still for that read-out and setting: the same measure for `O=c1c2cc(Oc3ccc(F)cn3)ccc2nc(-c2ccccc2F)n1C[C@H]1CCCNC1` [Compound 9a, (S)-2-(2-fluorophenyl)-6-((5-fluoropyridin-2-yl)oxy)-3-(piperidin-3-ylmethyl)quinazolin-4(3H)-one]: 935 nM; for `O=c1c2cc(Oc3ccc4ncsc4c3)ccc2nc(-c2ccccc2F)n1C[C@H]1CCCNC1` [Compound 9b, (S)-6-(benzo[d]thiazol-6-yloxy)-2-(2-fluorophenyl)-3-(piperidin-3-ylmethyl)quinazolin-4(3H)-one]: 16 nM. As for `Cc1ccccc1-c1nc2ccc(Oc3ccc4ncsc4c3)cc2c(=O)n1C[C@H]1CCCN(CCO)C1` [Compound 5i, (S)-6-(benzo[d]thiazol-6-yloxy)-3-((1-(2-hydroxyethyl)piperidin-3-yl)methyl)-2-(o-tolyl)quinazolin-4(3H)-one], at GHS-R1a [1], the IC50 turned out to be 0.4 nM and the “binding affinity with GHS-R1a” value was “sub-nanomolar binding affinity”.

For `Cc1ccccc1-c1nc2ccc(Oc3ccc4ncsc4c3)cc2c(=O)n1C[C@H]1CCCN(C(C)C)C1` [Compound 5g, (S)-6-(benzo[d]thiazol-6-yloxy)-3-((1-isopropylpiperidin-3-yl)methyl)-2-(o-tolyl)quinazolin-4(3H)-one], on GHS-R1a [1], the IC50 amounted to 1.8 nM and the “binding affinity with GHS-R1a” value is “equivalent binding affinity to natural ghrelin”. With `Cc1ccccc1-c1nc2ccc(Oc3ccc(Oc4ccc(F)cn4)nc3)cc2c(=O)n1C[C@H]1CCCNC1` [Compound 4d, (S)-6-((6-((5-fluoropyridin-2-yl)oxy)pyridin-3-yl)oxy)-3-(piperidin-3-ylmethyl)-2-(o-tolyl)quinazolin-4(3H)-one], the IC50 on GHS-R1a [1] came to 82.9 nM.

As for `Cc1ccccc1-c1nc2ccc(Oc3ccc(F)cn3)cc2c(=O)n1C[C@H]1CCCN(C(=O)C(C)F)C1` (stereo partly drawn) [Compound 5j, 3-(((3S)-1-(2-fluoropropanoyl)piperidin-3-yl)methyl)-6-((5-fluoropyridin-2-yl)oxy)-2-(o-tolyl)quinazolin-4(3H)-one], the half-maximal inhibitory concentration (IC50) on GHS-R1a [1] is > 1000 nM. As for `CC(C)N1CCC[C@H](Cn2c(-c3ccc(OCCO)cc3F)nc3ccc(Oc4ccc(F)cc4)cc3c2=O)C1` [Compound 15b, (S)-2-(2-fluoro-4-(2-hydroxyethoxy)phenyl)-6-(4-fluorophenoxy)-3-((1-isopropylpiperidin-3-yl)methyl)quinazolin-4(3H)-one], on GHS-R1a [1], the IC50 was 2.3 nM and the “binding affinity with GHS-R1a” value is “equivalent binding affinity to natural ghrelin”.

In the case of `Cc1ccccc1-c1nc2ccc(Oc3ccc(F)cc3)cc2c(=O)n1C[C@H]1CCCNC1` [Compound 4a, (S)-6-(4-fluorophenoxy)-3-(piperidin-3-ylmethyl)-2-(o-tolyl)quinazolin-4(3H)-one, reference compound], the inhibition constant (Ki) on GHS-R1a [2] was 0.9 nM. Also, the IC50 on GHS-R1a [1] is 5.6 nM. The compound `CC(C)N1CCC[C@H](Cn2c(-c3ccccc3F)nc3ccc(Oc4ccc(F)cn4)cc3c2=O)C1` [Compound 10a, (S)-2-(2-fluorophenyl)-6-((5-fluoropyridin-2-yl)oxy)-3-((1-isopropylpiperidin-3-yl)methyl)quinazolin-4(3H)-one] returned an IC50 on GHS-R1a [1] of 70.5 nM. With `Cc1ccccc1-c1nc2ccc(Oc3ccc(Oc4ccc(F)cn4)nc3)cc2c(=O)n1C[C@H]1CCCN(CCO)C1` [Compound 5d, (S)-6-((6-((5-fluoropyridin-2-yl)oxy)pyridin-3-yl)oxy)-3-((1-(2-hydroxyethyl)piperidin-3-yl)methyl)-2-(o-tolyl)quinazolin-4(3H)-one], the IC50 at GHS-R1a [1] was 65.2 nM. Consider `Cc1ccccc1-c1nc2ccc(C(=O)c3ccc(F)cc3)cc2c(=O)n1C[C@H]1CCCNC1` [Compound 19, (S)-6-(4-fluorobenzoyl)-3-(piperidin-3-ylmethyl)-2-(o-tolyl)quinazolin-4(3H)-one], for which the IC50 on GHS-R1a [1] came to 4 nM.

For the compound `CC(C)N1CCC[C@H](Cn2c(-c3ccccc3F)nc3ccc(Oc4ccc5ncsc5c4)cc3c2=O)C1` [Compound 10b, (S)-6-(benzo[d]thiazol-6-yloxy)-2-(2-fluorophenyl)-3-((1-isopropylpiperidin-3-yl)methyl)quinazolin-4(3H)-one], on GHS-R1a [1], the concentration for half-maximal inhibition (IC50) was determined as 0.02 nM and the “binding affinity with GHS-R1a” value is on record as “sub-nanomolar binding affinity”.

Values taken from US11186571B2, “Quinazolinone derivatives useful for imaging” (LONDON HEALTH SCIENCES CENTRE RESEARCH INC., priority 2017, dated 2021).
